Assay results: patent US20060074243A1, “Hydroxamic acid and amide compounds and their use as protease inhibitors” (Pharmacia Corporation, priority 2002, published 2006)

Columns and labels:
Test in all cases: In vitro MMP inhibition analysis (fluorogenic peptide substrate cleavage), Ki
Format in all cases: biochemical
Settings in all cases: Table 2
Human recombinant MMP-9 = target: T1, Human recombinant MMP-9 (Homo sapiens, UniProt P14780)
T1 construct: made in house; host or cells: MMP-9-transfected HT1080 cells (spent media)
Method: (§1) Several compounds and salts were analyzed in an in vitro assay to determine their ability to inhibit the MMP cleavage of peptide substrates. Inhibition constant (Ki) were calculated from the assayed compound-MMP interactions.
(§2) Human recombinant MMP-1, MMP-2, MMP-9, MMP-13, and MMP-14 were used in this assay. All enzymes were prepared in Assignee's laboratories following usual laboratory procedures. Protocols for the preparation and use of these enzymes are available in the scientific literature. See, e.g., Enzyme Nomenclature (Academic Press, San Diego, Calif., 1992) (and the citations therein). See also, Frije et al., J. Biol. Chem., 26(24), 16766-73 (1994).
The MMP-9 proenzyme was purified by gelatin Sepharose chromatography from spent media of MMP-9-transfected HT1080 cells provided by Dr. Howard Welgus of Washington University (St. Louis, Mo.).
(§3) All MMPs were activated using 4-aminophenylmercuric acetate (“APMA”, Sigma Chemical, St. Louis, Mo.) or trypsin. MMP-9 also was activated using human recombinant MMP-3 (purified in Assignee's laboratory following standard cloning and purification techniques).
(§4) The following fluorogenic, methoxycoumarin-containing polypeptide substrate (I) was used in the MMP inhibition assays: MCA-ArgProLeuGlyLeuDpaAlaArgGluArgNH2 (I) “MCA” is 7-methoxycoumarin-4-yl acetyl. Substrate (I) was prepared Assignee's laboratory. In the absence of MMP inhibitory activity, the substrate is cleaved at the Gly-Leu peptide bond. This cleavage separates the highly fluorogenic peptide from the 2,4-dinitrophenyl quencher, thus resulting in increase of fluorescent intensity.
(§5) The stock solutions of the assayed compounds and salts were prepared in […] (DMSO). These stock solutions were diluted in Buffer A (100 mM Tris-HCl, 100 mM NaCl, 10 mM CaCl2, 0.05% polyoxyethylene 23 lauryl ether, pH 7.5) to obtain solutions with different compound concentrations, i.e., assay solutions with different concentrations of the assayed […] compound. The experiment controls contained the same amount of Buffer A/DMSO as the assayed sample, but contained none of the tested compound or salt.
(§6) The assays from which the Ki determinations were made were performed as follows. The assayed compound samples were incubated in separate wells of untreated white polystyrene plates (Nunc Nalgene International, Rochester, N.Y.), and analyzed on a Tecan SpectraFlour Plus plate reader. The excitation wavelength was 330 nm, and the emission wavelength—420 nm. All samples (assayed compounds and controls) were incubated in separate plate wells at room temperature for 1 hr in the presence of 4 μM of MMP substrate (I). In the absence of MMP inhibitory activity, substrate (I) was cleaved at the Gly-Leu bond resulting in an increase of relative fluorescence. Inhibition was observed as a reduced rate of this increase in relative fluorescence. […] This protocol is a modification of method by Knight et al., FEBS Lett., 296(3), 263-266 (1992). Apparent inhibitory constants were determined by non-linear regression of reaction velocity as a function of inhibitor and enzyme concentration using Morrison's equation, as described by Kuzmic, Anal. Biochem. 286, 45-50 (2000). Modifications were made in the non-linear regression method to allow a common control reaction rate and effective enzyme concentration to be shared between all dose-response relationships on a given assay plate. Since the substrate concentration was chosen to be at or below the Km, the apparent Ki's from this analysis were reported as Ki's without correction for the influence of substrate.
(§7) The above protocols were used to determine Ki constants for the compounds in Examples 2-35 above. All Ki values in Table 1 are given in nM units.

Human recombinant MMP-13 = target: T2, Human recombinant MMP-13 (Homo sapiens, UniProt P45452)
T2 construct: made in house; host or cells: baculovirus / insect cells
Method: as §1, §2
The MMP-13 was obtained as a proenzyme from a full-length cDNA clone using baculovirus, as described by V. A. Luckow, “Insect Cell Expression Technology,” Protein Engineering: Principles and Practice, pp. 183-218 (edited by J. L. Cleland et al., Wiley-Liss, Inc., 1996). The expressed proenzyme was first purified over a heparin agarose column, and then over a chelating zinc chloride column. The proenzyme was then activated by APMA for use in the assay. Further details on baculovirus expression systems may be found in, for example, Luckow et al., J. Virol., 67, 4566-79 (1993). See also, O'Reilly et al, Baculovirus Expression Vectors: A Laboratory Manual (W.H. Freeman and Co., New York, N.Y., 1992). See also, King et al., The Baculovirus Expression System: A Laboratory Guide (Chapman & Hall, London, England, 1992).
as §3, §4, §5
as §6, with “Modifications were made in the non-linear regression method to allow a common control reaction rate and effective enzyme concentration to be shared between all dose-response relationships on a given assay plate. Since the substrate concentration was chosen to be at or below the Km, the apparent Ki's from this analysis were reported as Ki's without correction for the influence of substrate.” left out

Human recombinant MMP-14 = target: T3, Human recombinant MMP-14 (Homo sapiens, UniProt P50281)
T3 construct: The catalytic domain enzyme was expressed in E. coli inclusion bodies, solubilized in urea; made in house
Method: as §1, §2
The MMP-14 full length cDNA was provided by Dr. Gregory Goldberg of Washington University (St. Louis, Mo.). The catalytic domain enzyme was expressed in E. coli inclusion bodies, solubilized in urea, purified on a preparative […] reverse phase HPLC column, and then refolded in the presence of zinc acetate and purified for use.
as §3, §4, §5, §6, §7

T1 sequence (P14780 107-707 limits assumed): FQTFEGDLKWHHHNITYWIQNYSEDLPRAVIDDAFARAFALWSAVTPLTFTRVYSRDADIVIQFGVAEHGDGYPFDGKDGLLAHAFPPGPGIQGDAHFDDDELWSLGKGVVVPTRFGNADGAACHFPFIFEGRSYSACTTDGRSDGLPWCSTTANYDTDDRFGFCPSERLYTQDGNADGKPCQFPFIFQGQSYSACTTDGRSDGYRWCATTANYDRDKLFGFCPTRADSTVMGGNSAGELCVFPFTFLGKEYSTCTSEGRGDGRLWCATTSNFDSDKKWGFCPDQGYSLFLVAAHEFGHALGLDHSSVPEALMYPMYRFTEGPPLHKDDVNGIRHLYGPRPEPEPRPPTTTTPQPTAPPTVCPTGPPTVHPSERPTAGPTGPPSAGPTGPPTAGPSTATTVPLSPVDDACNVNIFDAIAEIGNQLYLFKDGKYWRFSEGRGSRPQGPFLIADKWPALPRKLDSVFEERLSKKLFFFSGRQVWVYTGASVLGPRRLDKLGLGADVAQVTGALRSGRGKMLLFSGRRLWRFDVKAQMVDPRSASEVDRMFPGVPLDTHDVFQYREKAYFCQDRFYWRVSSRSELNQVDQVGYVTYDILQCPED

Compound O=C(NO)C1(S(=O)(=O)c2ccc(-c3cnc(N4CCCC4)cn3)cc2)CCOCC1 [Example 138] has a Ki (Human recombinant MMP-9) of 1.04 nM, a Ki (Human recombinant MMP-13) of 0.571 nM and a Ki (Human recombinant MMP-14) of 1110 nM.

For CCCCc1ccc(-c2ccc(S(=O)(=O)C3(C(=O)NO)CCN(CC)CC3)cc2)cn1 [Example 139], the Ki (Human recombinant MMP-9) was 6.23 nM, the Ki (Human recombinant MMP-13) was 5.22 nM and the Ki (Human recombinant MMP-14) was > 10000 nM.

CCCCc1ccc(-c2ccc(S(=O)(=O)C3(C(=O)NO)CCN(CC)CC3)cc2)nc1 [Example 140] was tested, and the Ki (Human recombinant MMP-9) was 0.127 nM, the Ki (Human recombinant MMP-13) was 0.058 nM and the Ki (Human recombinant MMP-14) was 604 nM.

For O=C(NO)C1(S(=O)(=O)c2ccc(-c3ccc(-c4ccncc4)cc3)cc2)CCOCC1 [Example 141], the Ki (Human recombinant MMP-9) was 0.198 nM, the Ki (Human recombinant MMP-13) was 0.012 nM and the Ki (Human recombinant MMP-14) was 79.4 nM.

In the case of O=C(NO)C1(S(=O)(=O)c2ccc(-c3cnc(CCC(F)(F)C(F)(F)F)nc3)cc2)CCOCC1 [Example 142], the Ki (Human recombinant MMP-9) is reported as 76.6 nM, the Ki (Human recombinant MMP-13) is reported as 22.5 nM and the Ki (Human recombinant MMP-14) is reported as > 10000 nM.

Work on O=C(NO)C1(S(=O)(=O)c2ccc(-c3ccc(OCCCC(F)(F)F)cn3)cc2)CCOCC1 [Example 144] yielded a Ki (Human recombinant MMP-9) of 1.13 nM, a Ki (Human recombinant MMP-13) of 0.007 nM and a Ki (Human recombinant MMP-14) of 187 nM.

In the case of O=C(NO)C1(S(=O)(=O)c2ccc(-c3ccc(-c4ccc(OC(F)(F)F)cc4)cn3)cc2)CCN(C2CC2)CC1 [Example 145], the Ki (Human recombinant MMP-9) is reported as 6.62 nM, the Ki (Human recombinant MMP-13) is reported as 0.26 nM and the Ki (Human recombinant MMP-14) is reported as 560 nM.

Work on CN1CCC(C(=O)NO)(S(=O)(=O)c2ccc(-c3ccc(OC(F)(F)C(F)F)cc3)cc2)CC1 [Example 146] yielded a Ki (Human recombinant MMP-9) of 0.48 nM, a Ki (Human recombinant MMP-13) of 0.15 nM and a Ki (Human recombinant MMP-14) of 1050 nM.

CCN1CCC(C(=O)NO)(S(=O)(=O)c2ccc(-c3noc(-c4ccc(F)cc4)n3)cc2)CC1 [Example 147] was tested, and the Ki (Human recombinant MMP-9) was 7.09 nM, the Ki (Human recombinant MMP-13) was 2.59 nM and the Ki (Human recombinant MMP-14) was 139 nM.

Compound CCN1CCC(C(=O)NO)(S(=O)(=O)c2ccc(-c3noc(-c4ccncc4)n3)cc2)CC1 [Example 148] has a Ki (Human recombinant MMP-9) of 39.3 nM, a Ki (Human recombinant MMP-13) of 5.7 nM and a Ki (Human recombinant MMP-14) of 1020 nM.

With CCN1CCC(C(=O)NO)(S(=O)(=O)c2ccc(-c3noc(-c4ccc(C(F)(F)F)cc4)n3)cc2)CC1 [Example 149] the Ki (Human recombinant MMP-9) was 5.18 nM, the Ki (Human recombinant MMP-13) was 0.45 nM and the Ki (Human recombinant MMP-14) was 117 nM.

O=C(NO)C1(S(=O)(=O)c2ccc(-c3ccc(-c4ccccc4F)cn3)cc2)CCN(C2CC2)CC1 [Example 150] gave a Ki (Human recombinant MMP-9) of 0.47 nM, a Ki (Human recombinant MMP-13) of 0.12 nM and a Ki (Human recombinant MMP-14) of 307 nM.

Work on O=C(NO)C1(S(=O)(=O)c2ccc(-c3ccc(-c4ccccc4)cn3)cc2)CCN(C2CC2)CC1 [Example 151] yielded a Ki (Human recombinant MMP-9) of 0.09 nM, a Ki (Human recombinant MMP-13) of 0.05 nM and a Ki (Human recombinant MMP-14) of 120 nM.

For COCCN1CCC(C(=O)NO)(S(=O)(=O)c2ccc(-c3ccc(-c4ccccc4)cc3)cc2)CC1 [Example 152], the Ki (Human recombinant MMP-9) was 0.09 nM, the Ki (Human recombinant MMP-13) was 0.05 nM and the Ki (Human recombinant MMP-14) was 144 nM.

O=C(NO)C1(S(=O)(=O)c2ccc(-c3ccc(-c4ccccc4)cc3)cc2)CCN(C2CC2)CC1 [Example 153] was tested, and the Ki (Human recombinant MMP-9) was 0.18 nM, the Ki (Human recombinant MMP-13) was 0.15 nM and the Ki (Human recombinant MMP-14) was 205 nM.

O=C(NO)C1(S(=O)(=O)c2ccc(-c3cnc(OCC(F)(F)C(F)(F)F)cn3)cc2)CCOCC1 [Example 154] gave a Ki (Human recombinant MMP-9) of 0.34 nM, a Ki (Human recombinant MMP-13) of 0.12 nM and a Ki (Human recombinant MMP-14) of 493 nM.

In the case of CCN1CCC(C(=O)NO)(S(=O)(=O)c2ccc(-c3ccc(-c4csc(C)n4)cc3)cc2)CC1 [Example 155], the Ki (Human recombinant MMP-9) is reported as 0.44 nM, the Ki (Human recombinant MMP-13) is reported as 0.17 nM and the Ki (Human recombinant MMP-14) is reported as 283 nM.

In the case of O=C(NO)C1(S(=O)(=O)c2ccc(-c3cnc(OCC(F)(F)C(F)(F)F)cn3)cc2)CCN(C2CC2)CC1 [Example 156], the Ki (Human recombinant MMP-9) is reported as 0.48 nM, the Ki (Human recombinant MMP-13) is reported as 0.31 nM and the Ki (Human recombinant MMP-14) is reported as 1140 nM.

Compound COCCN1CCC(C(=O)NO)(S(=O)(=O)c2ccc(-c3cnc(OCC(F)(F)C(F)(F)F)cn3)cc2)CC1 [Example 157] has a Ki (Human recombinant MMP-9) of 0.42 nM, a Ki (Human recombinant MMP-13) of 0.26 nM and a Ki (Human recombinant MMP-14) of 1220 nM.

O=CN1CCC(C(=O)NO)(S(=O)(=O)c2ccc(-c3ccc(CCCC(F)(F)F)cn3)cc2)CC1 [Example 159] was tested, and the Ki (Human recombinant MMP-9) was 0.38 nM, the Ki (Human recombinant MMP-13) was 0.02 nM and the Ki (Human recombinant MMP-14) was 599 nM.

With O=C(NO)C1(S(=O)(=O)c2ccc(-c3cnc(-c4cccs4)cn3)cc2)CCOCC1 [Example 160] the Ki (Human recombinant MMP-9) was 3.16 nM, the Ki (Human recombinant MMP-13) was 0.7 nM and the Ki (Human recombinant MMP-14) was > 10000 nM.

Work on O=C(NO)C1(S(=O)(=O)c2ccc(-c3ccc(CCC(F)(F)F)cc3)cc2)CCOCC1 [Example 161] yielded a Ki (Human recombinant MMP-9) of 0.21 nM, a Ki (Human recombinant MMP-13) of 0.07 nM and a Ki (Human recombinant MMP-14) of 303 nM.

In the case of O=C(NO)C1(S(=O)(=O)c2ccc(-c3cnc(C4CCCC4)cn3)cc2)CCOCC1 [Example 162], the Ki (Human recombinant MMP-9) is reported as 34 nM, the Ki (Human recombinant MMP-13) is reported as 0.95 nM and the Ki (Human recombinant MMP-14) is reported as 7350 nM.

For CCOc1ccc(-c2ccc(S(=O)(=O)C3(C(=O)NO)CCOCC3)cc2)cc1 [Example 163], the Ki (Human recombinant MMP-9) was 0.03 nM, the Ki (Human recombinant MMP-13) was 0.011 nM and the Ki (Human recombinant MMP-14) was 56.7 nM.

With COCC#Cc1cnc(-c2ccc(S(=O)(=O)C3(C(=O)NO)CCOCC3)cc2)cn1 [Example 164] the Ki (Human recombinant MMP-9) was 0.57 nM, the Ki (Human recombinant MMP-13) was 0.09 nM and the Ki (Human recombinant MMP-14) was 152 nM.
